Where two headings read alike, the source gives them in different places.
What was measured:
PTH receptor [1] = molecular target: T1, PTH receptor (Canis lupus familiaris, UniProt Q9TU31); assay type: biochemical, canine; details: for RENAL MEMBRANES Canine Activity (AC): Table 5B, hPTH(1-34) = 100
T1 construct: canine renal plasma membranes; from tissue; host or cells: canine kidney (renal plasma membranes)
T1 sequence (Q9TU31 29-595): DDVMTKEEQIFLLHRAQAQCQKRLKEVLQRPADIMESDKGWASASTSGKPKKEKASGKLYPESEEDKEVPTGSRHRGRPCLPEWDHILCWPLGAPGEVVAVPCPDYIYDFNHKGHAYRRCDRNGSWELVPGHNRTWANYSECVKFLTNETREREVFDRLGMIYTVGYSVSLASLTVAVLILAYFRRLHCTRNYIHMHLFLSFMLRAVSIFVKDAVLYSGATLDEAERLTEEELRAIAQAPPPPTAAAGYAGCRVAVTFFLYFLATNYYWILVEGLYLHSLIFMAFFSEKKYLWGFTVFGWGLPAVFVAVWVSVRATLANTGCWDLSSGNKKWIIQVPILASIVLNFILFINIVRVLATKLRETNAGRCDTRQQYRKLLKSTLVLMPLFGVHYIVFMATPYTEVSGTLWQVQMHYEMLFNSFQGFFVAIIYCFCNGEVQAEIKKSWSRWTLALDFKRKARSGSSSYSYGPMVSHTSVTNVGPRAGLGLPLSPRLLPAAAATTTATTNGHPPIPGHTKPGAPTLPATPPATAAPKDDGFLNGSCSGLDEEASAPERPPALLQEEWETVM
Procedure: (§1) Receptor binding assays were carried out in canine renal plasma membranes and in UMR 106-H5 rat osteosarcoma cells as previously described in detail (Ref. 14,32), using ^125 I-labeled PTH(1-34)amide as the radioligand. Binding potency (IC50) was quantified as the concentration of unlabeled peptide required for half-maximal displacement of the radioligand. […] Adenylate cyclase activity was assessed in canine renal membranes by the conversion of [α-32p ] ATP to [^32 P] cyclic AMP, essentially as described, except for the addition of 100 micromolar GTP (Ref. 33,34). Adenylate cyclase activity in UMR 106-H5 cells was assessed essentially as described (Ref. 35). In brief, cells were incubated with [3H]adenine 1 micro Ci/ml of serum-free MEM for two hours at 37° C. to label the endogenous ATP pool. Cells were then exposed to 0.4 mM IBMX for 10 min, followed by the appropriate peptide for an additional 10 min at ambient temperature. The cells are then scraped in 20% TCA, and [3H]cyclic AMP is isolated by the column procedure of Salomon et al. (Ref. 36). Potency in the adenylate cyclase assays (Ka) is the concentration of peptide producing half-maximal enzyme activation.

PTH receptor [2] = molecular target: T2, PTH receptor (Rattus norvegicus, UniProt P25961); assay type: binding
T2 construct: endogenous in cells; host or cells: UMR 106-H5 rat osteosarcoma cells
T2 sequence (P25961 27-591): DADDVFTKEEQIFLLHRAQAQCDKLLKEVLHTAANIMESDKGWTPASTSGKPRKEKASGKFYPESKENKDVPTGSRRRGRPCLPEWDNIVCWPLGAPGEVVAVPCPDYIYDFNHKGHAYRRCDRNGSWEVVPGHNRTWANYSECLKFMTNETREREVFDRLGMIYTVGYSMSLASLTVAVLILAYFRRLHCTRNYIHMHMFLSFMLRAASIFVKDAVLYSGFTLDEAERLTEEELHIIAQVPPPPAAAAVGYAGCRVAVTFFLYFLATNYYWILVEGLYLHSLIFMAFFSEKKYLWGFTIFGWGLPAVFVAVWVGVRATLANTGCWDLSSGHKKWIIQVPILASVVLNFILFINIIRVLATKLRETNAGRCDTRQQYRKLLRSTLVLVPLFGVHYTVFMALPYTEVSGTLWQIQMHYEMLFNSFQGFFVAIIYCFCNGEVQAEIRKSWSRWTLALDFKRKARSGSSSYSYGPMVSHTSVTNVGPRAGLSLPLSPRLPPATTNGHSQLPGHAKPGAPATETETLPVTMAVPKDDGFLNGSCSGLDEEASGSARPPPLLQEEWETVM
Procedure: as §1

PTH receptor [3] = molecular target: T1, PTH receptor; assay type: binding, canine
Procedure: as §1

PTH receptor [4] = system: PTH receptor
PTH receptor [5] = molecular target: T2, PTH receptor; assay type: cell-based; details: for BONE CELLS Rat(UMR-106) Activity (AC): Table 5A, intact cells, hPTH(1-34) = 100
Procedure: as §1, with “Assays were conducted using […] cells. These assays were performed as described in Cohen et al. (1991), J. Biological Chem., 266(3), 1997 and in the Experimental section, e.g. Example 11. Receptor” for “Receptor”

[6] = cited from earlier work
PTH receptor [7] = molecular target: T3, PTH receptor (Homo sapiens, UniProt Q03431)
T3 sequence (Q03431 27-593): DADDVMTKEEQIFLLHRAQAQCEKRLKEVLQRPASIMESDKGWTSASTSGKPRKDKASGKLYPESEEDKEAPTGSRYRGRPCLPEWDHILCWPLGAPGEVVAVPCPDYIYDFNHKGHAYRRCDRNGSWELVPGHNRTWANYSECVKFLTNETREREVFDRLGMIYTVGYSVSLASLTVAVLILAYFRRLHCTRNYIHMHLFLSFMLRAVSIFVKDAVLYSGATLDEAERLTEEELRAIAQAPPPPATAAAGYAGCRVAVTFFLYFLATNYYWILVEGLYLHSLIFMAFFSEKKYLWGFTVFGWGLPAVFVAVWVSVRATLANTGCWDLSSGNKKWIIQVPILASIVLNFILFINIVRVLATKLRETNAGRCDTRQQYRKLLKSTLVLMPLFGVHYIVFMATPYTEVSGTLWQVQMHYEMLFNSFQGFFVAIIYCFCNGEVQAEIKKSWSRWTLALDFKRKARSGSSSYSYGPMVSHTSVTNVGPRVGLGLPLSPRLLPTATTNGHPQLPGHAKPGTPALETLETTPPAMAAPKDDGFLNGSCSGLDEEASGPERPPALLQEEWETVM

PTH receptor [8] = molecular target: T3, PTH receptor; assay type: cell-based; design: In intact rat (UMR-106) and human (SaOS-2) bone cell lines; endogenous in cells; host or cells: SaOS-2 human bone (osteosarcoma) cells
From the text: The renal membrane assay values listed reflect the effect of the polypeptide analogue with kidney tissue receptors. The UMR-106-H5 assay values reflect the effect of the peptide analogue with rat bone tissue receptors. The Sa05-2 assay values reflect the effect of the peptides for human bone tissue receptors.

[9] = Table 5A, intact cells, hPTH(1-34) = 100

For `CC[C@H](C)[C@H](NC(=O)[C@H](CCC(=O)O)NC(=O)[C@H](CO)NC(=O)[C@@H](NC(=O)[C@@H](N)CO)C(C)C)C(=O)N[C@@H](CCC(N)=O)C(=O)N[C@@H](CC(C)C)C(=O)N[C@@H](CCSC)C(=O)N[C@@H](Cc1c[nH]cn1)C(=O)N[C@@H](CC(N)=O)C(=O)N[C@@H](CC(C)C)C(=O)NCC(=O)N[C@@H](CCCCN)C(=O)N[C@@H](Cc1c[nH]cn1)C(=O)N[C@@H](CC(C)C)C(=O)N[C@@H](CC(N)=O)C(=O)N[C@@H](CO)C(=O)N[C@@H](CCSC)C(=O)N[C@@H](CCC(=O)O)C(=O)N[C@@H](CCCNC(=N)N)C(=O)N[C@H](C(=O)N[C@@H](CCC(=O)O)C(=O)N[C@@H](Cc1c[nH]c2ccccc12)C(=O)N[C@@H](CC(C)C)C(=O)N[C@@H](CCCNC(=N)N)C(=O)N[C@@H](CCCCN)C(=O)N[C@@H](CCCCN)C(=O)N[C@@H](CC(C)C)C(=O)N[C@@H](CCC(N)=O)C(=O)N[C@@H](CC(=O)O)C(=O)N[C@H](C(=O)N[C@@H](Cc1c[nH]cn1)C(=O)N[C@@H](CC(N)=O)C(=O)N[C@@H](Cc1ccccc1)C(=O)O)C(C)C)C(C)C` [hPTH (1-34), hPTH(1-34), reference compound], the “KIDNEY CELLS (CK) Potency (B)” value (PTH receptors; [9]) was 100%, the “RENAL MEMBRANES Canine Potency (AC)” value (PTH receptor [1]) was 100% and the “RENAL MEMBRANES Canine Activity (AC*)” value (PTH receptor [1]; Table 1(A), large doses, relative to hPTH(1-34) = 100%) was 100%. For the same compound, the “RENAL MEMBRANES Canine Activity (AC)” value (PTH receptor [1]) was 100%, the “BONE CELLS Rat(UMR-106) Potency (B)” value (PTH receptor [2]) was 100% and the “UMR106-H5 CELLS Rat Bone Potency (B)” value (PTH receptor [2]) was 100%. The “RENAL MEMBRANES Canine Potency (B)” value (PTH receptor [3]) was 100%, the “KIDNEY CELLS (CK) Potency (AC)” value (PTH receptor [4]; [9]) was 100% and the “BONE CELLS Rat(UMR-106) Potency (AC)” value (PTH receptor [5]) was 100%. The “UMR106-H5 CELLS Rat Bone Potency (AC)” value (PTH receptor [5]) was 100%, the “UMR106-H5 CELLS Rat Bone Activity (AC*)” value (PTH receptor [5]; Table 1(A), relative to hPTH(1-34) = 100%) was 100% and the “BONE CELLS Rat(UMR-106) Activity (AC)” value (PTH receptor [5]) was 100%.

In the case of [SOMet^18 ]bPTH(1-84), the “activity of the native hormone retained” value ([6]; Ref. 49) is given as about 50%.

In the case of `CC[C@H](C)[C@H](NC(=O)[C@H](CCC(=O)O)NC(=O)[C@H](Cc1c[nH]cn1)NC(=O)[C@@H](NC(=O)[C@@H](N)CO)C(C)C)C(=O)N[C@@H](CCC(N)=O)C(=O)N[C@@H](CC(C)C)C(=O)N[C@@H](CCSC)C(=O)N[C@@H](Cc1c[nH]cn1)C(=O)N[C@@H](CC(N)=O)C(=O)N[C@@H](CC(C)C)C(=O)NCC(=O)N[C@@H](CCCCN)C(=O)N[C@@H](Cc1c[nH]cn1)C(=O)N[C@@H](CC(C)C)C(=O)N[C@@H](CC(N)=O)C(=O)N[C@@H](CO)C(=O)N[C@@H](CCSC)C(=O)N[C@@H](CCC(=O)O)C(=O)N[C@@H](CCCNC(=N)N)C(=O)N[C@H](C(=O)N[C@@H](CCC(=O)O)C(=O)N[C@@H](Cc1c[nH]c2ccccc12)C(=O)N[C@@H](CC(C)C)C(=O)N[C@@H](CCCNC(=N)N)C(=O)N[C@@H](CCCCN)C(=O)N[C@@H](CCCCN)C(=O)N[C@@H](CC(C)C)C(=O)N[C@@H](CCC(N)=O)C(=O)N[C@@H](CC(=O)O)C(=O)N[C@H](C(=O)N[C@@H](Cc1c[nH]cn1)C(=O)N[C@@H](CC(N)=O)C(=O)N[C@@H](Cc1ccccc1)C(=O)O)C(C)C)C(C)C` [[his^3]hPTH(1-34), [his^3]HPTH(1-34)], the “KIDNEY CELLS (CK) Potency (B)” value (PTH receptors) is reported as 6%, the “potency of native [ser^3]HPTH(1-34) retained in binding to PTH receptors” value (PTH receptors) is reported as 5-15% and the “BONE CELL MEMBRANES Human SaOS-2 Potency (AC)” value (PTH receptor [7]) is reported as 11%. The “BONE CELL MEMBRANES Human SaOS-2 Activity (AC)” value (PTH receptor [7]; Table 5B, hPTH(1-34) = 100) was 14%, the “BONE CELLS Human(SaOS-2) Potency (AC)” value (PTH receptor [8]) was 5% and the “BONE CELLS Human(SaOS-2) Activity (AC)” value (PTH receptor [8]; [9]) was 100%. For the same compound, the “RENAL MEMBRANES Canine Potency (AC)” value (PTH receptor [1]) was 1%, the “RENAL MEMBRANES Canine Activity (AC)” value (PTH receptor [1]) was 43% and the “BONE CELLS Rat(UMR-106) Potency (B)” value (PTH receptor [2]) was 1%. For the same compound, the “RENAL MEMBRANES Canine Potency (B)” value (PTH receptor [3]) was 4%, the “KIDNEY CELLS (CK) Potency (AC)” value (PTH receptor [4]) was 13% and the “BONE CELLS Rat(UMR-106) Potency (AC)” value (PTH receptor [5]) was 4%. For the same compound, the “BONE CELLS Rat(UMR-106) Activity (AC)” value (PTH receptor [5]) was 100%.

For [Gln^22, Lys^28, Leu^30 hPTH(1-34), the “loss of biological activity” value ([6]; Ref. 49, 50) is listed as 10-50 fold.

— patent US5849695A, “Parathyroid hormone analogues useful for treatment of osteoporosis and disorders of calcium meatabolism in mammals” (The Regents of the University of California, priority 1993, dated 1998)
